Like-named read-outs stand apart in the source and are kept apart here. No end group written: not given here.
Columns and labels:
[1] = biological target: T1, Chymotrypsin (Bos taurus, UniProt P00766); test: Inhibition of protease digestion of fluorescent labeled casein: chymotrypsin; format: biochemical; conditions: for Chymotrypsin Activity (Fluorescence Units) Mean: no-peptide control 375
T1 construct: purchased
Procedure: (§1) The ability of Rev4 to inhibit four different classes of proteases was tested using fluorescent labeled casein as substrate under the following conditions:
(§2) Each protease was incubated with substrate (5 μg/mL fluorescent labeled casein; Molecular Probes Inc., Eugene, Oreg.) and peptide in a total volume of 200 μL in a 96-well microtiter plate. Before use, papain was activated with cysteine (Arnon, 1970, Methods in Enzymology 19:226–44). After incubation at room temperature for one hour, fluorescence due to casein digestion was measured in a Luminescence Spectrometer (LS50B, Perkin Elmer Ltd., England) with an excitation wavelength of 505 nm and an emission wavelength of 513 nm. The blank control contained the substrate, buffer and peptide but lacked the protease.
The peptides described in EXAMPLE 12 were tested for their effects on the action of chymotrypsin on casein using the methods described in EXAMPLE 10.

[2] = biological target: T2, Papain (Carica papaya, UniProt P00784); test: Inhibition of protease digestion of fluorescent labeled casein: papain; format: biochemical; conditions: pH 6.2, papain 0.01 mg/mL, pH6.2, read-out: % Inhibition of Proteolysis
T2 construct: purchased
T2 sequence (P00784 134-345): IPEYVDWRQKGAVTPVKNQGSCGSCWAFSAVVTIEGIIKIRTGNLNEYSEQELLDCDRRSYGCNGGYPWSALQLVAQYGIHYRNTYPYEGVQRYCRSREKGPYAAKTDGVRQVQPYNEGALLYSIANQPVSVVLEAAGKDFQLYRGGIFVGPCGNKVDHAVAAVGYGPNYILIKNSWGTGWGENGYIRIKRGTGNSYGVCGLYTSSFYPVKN
Procedure: as §1, §2

[3] = biological target: T3, Pepsin (Sus scrofa, UniProt P00791); test: Inhibition of protease digestion of fluorescent labeled casein: pepsin; format: biochemical; conditions: pH 2, pepsin 0.01 mg/mL, pH2.0, read-out: % Inhibition of Proteolysis
T3 construct: purchased
T3 sequence (P00791 60-385): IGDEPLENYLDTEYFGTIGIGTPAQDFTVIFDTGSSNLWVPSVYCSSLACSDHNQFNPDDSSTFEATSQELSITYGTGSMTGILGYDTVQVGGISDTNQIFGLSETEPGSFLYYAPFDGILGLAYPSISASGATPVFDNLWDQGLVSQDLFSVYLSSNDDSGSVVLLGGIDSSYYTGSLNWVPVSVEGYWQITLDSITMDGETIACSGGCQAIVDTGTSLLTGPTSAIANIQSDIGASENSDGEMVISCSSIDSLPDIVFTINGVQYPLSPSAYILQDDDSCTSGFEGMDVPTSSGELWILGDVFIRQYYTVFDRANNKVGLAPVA
Procedure: as §1, §2

[4] = test system: Peronospora tabacina; test: Tobacco blue mold spore germination assay; format: cell-based; conditions: for % Germination (mean +/− sem): final concentration of 2 μg/mL, control 76.6 +/− 11.2; for % Control: germination as % of no-peptide control, 2 μg/mL; for antifungal activity (in words): refers to EXAMPLE 12
Procedure: Tobacco blue mold (Peronospora tabacina) was used to compare the antifungal activity of Rev4 with that of MYP30. Spores of Peronospora tabacina were harvested from infected tobacco leaf with sterile water and washed three times. The spore suspension was diluted to 2,000 spores per mL. Peptide solution (2 μL) was added to spore suspension (48 μL) in a 96-well microtiter plate. After incubation in the dark at room temperature for 24 hours, the number of germinated spores was determined microscopically.
The peptides described as SEQ. ID Nos. 4, 5, 6, 7 and 8 in Examples 1, 3, 4, 5 and 6 were tested for antifungal activity as described in Example 11.

[5] = Stability of peptides to proteases in whole cell extract (WCE), HPLC; format: in vitro ADME, Kentucky 14 tobacco; conditions: other tissue homogenate, peptide alone, read-out: % Peptide Remaining Intact after 1 Hr.
Procedure: (§3) Whole cell extract (WCE) was prepared by grinding one gram of Kentucky 14 tobacco leaf tissue in liquid nitrogen, followed by extraction with 3 mL of 100 mM Tris-HCl buffer, pH 7.5, 50 mM NaCl. The mixture was clarified by spinning in a microcentrifuge (14,000 r.p.m., 5 minutes). The supernatant (WCE) was kept frozen as aliquots at −80° C. until required for an assay. Fifty micrograms of each peptide was incubated with different amounts of WCE in 50 mM Tris-HCl buffer, pH 7.5, total volume 50 microliters, for one hour at 37° C. The reaction was stopped by adding 1% trifluoroacetic acid (TFA). A sample of the reaction mixture (20 μL) was injected onto a Vydac C4 column (4.6×250 mm) in a Waters HPLC system with 515 pumps, 486 detector and Millenium software. The sample was eluted with a gradient of 0.1% TFA in water to 60% acetonitrile in 0.1% TFA. The area of the peak corresponding to the undigested peptide was integrated and compared with the equivalent peak from a 0% WCE control.
(§4) Assays for WCE protease degradation were performed as described in Example 8 except that one of the samples represented Magainin 2 that was mixed with Rev4 before the addition of WCE. The amounts of Magainin 2 and Rev4 remaining in the mixture were determined by HPLC as described for Examples 7 and 8.

[6] = test system: proteases present in whole cell extract (WCE); test: as above; format: in vitro ADME, Kentucky 14 tobacco; conditions: peptide alone
Procedure: as §3, §4

[7] = test system: proteases present in whole cell extract (WCE); test: Protection of Magainin 2 from degradation by WCE (Magainin 2 mixed with Rev4); format: in vitro ADME, Kentucky 14 tobacco; conditions: in Rev4 + Magainin 2 Mix
Procedure: as §3, §4

[8] = test system: proteases in the intercellular fluid of plant leaves; conditions: cited from earlier work
[9] = test system: Verticillium dahliae racel; test: Minimum concentration to completely inhibit spore germination, Verticillium; format: cell-based; conditions: 5,000 spores per mL, triplicate
From the text: (§5) The antifungal activity of Rev4 and related peptides was also compared using two tomato pathogens, Verticillium dahliae racel and Alternaria alternata f.sp. lycopersici. Spores were harvested from pure cultures grown on V8 medium, diluted to 5,000 spores per mL, and tested against dilution series of peptides in 96-well plates as described in U.S. Pat. No. 5,424,395.

[10] = test system: Alternaria alternata f.sp. lycopersici; test: Minimum concentration to completely inhibit spore germination, Alternaria; format: cell-based; conditions: 5,000 spores per mL, triplicate
From the text: as §5

[11] = test system: E. coli; conditions: Falla and Hancock 1997; cited from earlier work
[12] = test system: Pseudomonas aeruginosa; conditions: Falla and Hancock 1997; cited from earlier work
[13] = test system: Candida albicans; conditions: Falla and Hancock 1997; cited from earlier work
[14] = test system: Staphylococcus aureus; conditions: Falla and Hancock 1997; cited from earlier work

RRWPWWPWKWPLI-NH2 [Rev4, Arg Arg Trp Pro Trp Trp Pro Trp Lys Trp Pro Leu Ile]
inhibition at 2.5 µg/mL ([1]; pH 8, Rev4 2.5 μg/ml, chymotrypsin 0.01 mg/mL, pH8.0, read-out: % Inhibition of Proteolysis): 16% | inhibition at 5 µg/mL ([1]; pH 8, Rev4 5 μg/ml, chymotrypsin 0.01 mg/mL, pH8.0, read-out: % Inhibition of Proteolysis): 42% | inhibition at 10 µg/mL ([1]; pH 8, Rev4 10 μg/ml, chymotrypsin 0.01 mg/mL, pH8.0, read-out: % Inhibition of Proteolysis): 75% | inhibition at 20 µg/mL ([1]; pH 8, Rev4 20 μg/ml, chymotrypsin 0.01 mg/mL, pH8.0, read-out: % Inhibition of Proteolysis): 97% | inhibition at 2.5 µg/mL ([2]; Rev4 2.5 μg/ml): 29% | inhibition at 5 µg/mL ([2]; Rev4 5 μg/ml): 72% | inhibition at 10 µg/mL ([2]; Rev4 10 μg/ml): 93% | inhibition at 20 µg/mL ([2]; Rev4 20 μg/ml): 99% | inhibition at 25 µg/mL ([3]; Rev4 25 μg/ml): 3% | inhibition at 50 µg/mL ([3]; Rev4 50 μg/ml): 0% | inhibition at 100 µg/mL ([3]; Rev4 100 μg/ml): 0%

Ile Leu Lys Gly Phe Pro Gly Phe Pro Arg Arg Lys (ILKGFPGFPRRK-NH2) [SEQ. ID NO. 8, derivative of indolicidin in which Trp residues were replaced by Phe and a Pro residue was deleted]
protection of fluorescent-labeled casein from chymotrypsin (in words) [1]: did not have this protective effect | Chymotrypsin Activity (Fluorescence Units) Mean ([1]; peptide 5 μg/mL): 385 Fluorescence Units | Chymotrypsin Activity (Fluorescence Units) Mean ([1]; peptide 20 μg/mL): 321 Fluorescence Units | % Germination (mean +/− sem) [4]: 17.3 +/− 3.5% | % Control [4]: 23% | antifungal activity (in words) [4]: had retained antifungal activity

H-GIGKFLHSAKKFGKAFVGEIMNS-OH [Magainin 2, reference compound]
remaining at 1 h, 1 mg/mL ([5]; pH 7.5, 15% WCE): 10.9% | remaining at 1 h, 1 mg/mL ([5]; pH 7.5, 30% WCE): 0.3% | remaining at 1 h, 1 mg/mL ([5]; pH 7.5, 90% WCE): 0.4% | % Peptide Remaining Intact after 1 Hr. ([6]; 45% WCE): 0.4% | % Peptide Remaining Intact after 1 Hr. ([6]; 60% WCE): 0.3% | % Peptide Remaining Intact after 1 Hr. ([7]; 15% WCE): 89.7% | % Peptide Remaining Intact after 1 Hr. ([7]; 30% WCE): 87.6% | % Peptide Remaining Intact after 1 Hr. ([7]; 60% WCE): 73.1% | % Peptide Remaining Intact after 1 Hr. ([7]; 90% WCE): 56.3%

cecropin B: antimicrobial peptide cecropin B (KWKVFKKIEKMGRNIRNGIVKAGPAIAVLGEAKAL; ends and bridges not checked; UniProt P01508 27-61, looked up)
degradation / stability against proteases of plant intercellular fluid (in words) [8]: rapidly degraded

Ser Arg Arg Trp Pro Trp Trp Pro Trp Lys Trp Pro Leu Ile (SRRWPWWPWKWPLI-OH) [SEQ. ID NO. 5, analog of Rev4 in which an extra Ser was added to the N-terminus]
protection of fluorescent-labeled casein from chymotrypsin (in words) [1]: protected fluorescent-labeled casein from the action of chymotrypsin | Chymotrypsin Activity (Fluorescence Units) Mean ([1]; peptide 5 μg/mL): 162 Fluorescence Units | Chymotrypsin Activity (Fluorescence Units) Mean ([1]; peptide 20 μg/mL): 44 Fluorescence Units | % Germination (mean +/− sem) [4]: 6.8 +/− 6.3% | % Control [4]: 9% | minimum concentration required to completely inhibit spore germination for at least 48 hours [9]: 50 µg/mL

RRWPWWPWKWPLIGGGYDPAPPPPPP [SEQ. ID NO. 6, Rev4 with a C-terminal extension of 13 amino acids]
protection of fluorescent-labeled casein from chymotrypsin (in words) [1]: protected fluorescent-labeled casein from the action of chymotrypsin | Chymotrypsin Activity (Fluorescence Units) Mean ([1]; peptide 5 μg/mL): 212 Fluorescence Units | Chymotrypsin Activity (Fluorescence Units) Mean ([1]; peptide 20 μg/mL): 45 Fluorescence Units | % Germination (mean +/− sem) [4]: 5.7 +/− 9.8% | % Control [4]: 7% | minimum concentration required to completely inhibit spore germination for at least 48 hours [9]: 23 µg/mL | minimum concentration required to completely inhibit spore germination for at least 48 hours [10]: 50 µg/mL

ILKKWPWWPWRR [CP-11, synthetic peptide based on indolicidin (Falla and Hancock)]
activity against E. coli relative to indolicidin (in words) [11]: better activity | activity against Pseudomonas aeruginosa relative to indolicidin (in words) [12]: better activity | activity against Candida albicans relative to indolicidin (in words) [13]: better activity | activity against Staphylococcus aureus relative to indolicidin (in words) [14]: reduced activity

Ile Leu Pro Phe Lys Phe Pro Phe Phe Pro Phe Arg Arg (ILPFKFPFFPFRR-NH2) [SEQ. ID NO. 7, indolicidin in which the Trp residues were replaced with Phe]
protection of fluorescent-labeled casein from chymotrypsin (in words) [1]: did not have this protective effect | Chymotrypsin Activity (Fluorescence Units) Mean ([1]; peptide 5 μg/mL): 386 Fluorescence Units | Chymotrypsin Activity (Fluorescence Units) Mean ([1]; peptide 20 μg/mL): 385 Fluorescence Units | % Germination (mean +/− sem) [4]: 8.8 +/− 5.4% | % Control [4]: 11% | antifungal activity (in words) [4]: had retained antifungal activity | minimum concentration required to completely inhibit spore germination for at least 48 hours [9]: 50 µg/mL | minimum concentration required to completely inhibit spore germination for at least 48 hours [10]: 100 µg/mL
